Consider 5 compounds from US11466029B2, “Compounds useful to treat influenza virus infections” (Nanjing Zhengxiang Pharmaceuticals Co., Ltd., priority 2019, dated 2022).

The experiment has as its system Oseltamivir-resistant A/Weiss/43 (H1N1). In words: microbe, parasite or virus in culture. The following applies: Influenza A virus, H1N1, MDCK, 120 h. The format is cell-based.
Broadly, the EC50 is the concentration that produces a half-maximal response. Read a high EC50 as weaker potency. `O=C1c2c(O)c(=O)ccn2N([C@@H]2c3ccccc3[Se]Cc3c2ccc(F)c3F)[C@@H]2COCCN12` [Compound B-1, (R)-12-((S)-7,8-Difluoro-6,11-Dihydrodibenzo[b,e]Selenepin-11-yl)-7-Hydroxy-3,4,12,12a-Tetrahydro-1H-[1,4]Oxazino[3,4-c]Pyrido[2,1-f][1,2,4]Triazine-6,8-Dione]: the EC50 came to 0.0011 µM.

Regarding `O=C1c2c(O)c(=O)ccn2N([C@@H]2c3ccccc3SCc3c2ccc(F)c3F)[C@@H]2COCCN12` [Baloxavir acid, reference compound], the EC50 amounted to 0.001 µM. In turn, `CP(C)(=O)c1cn2c(c(O)c1=O)C(=O)N1CCOC[C@H]1N2[C@@H]1c2ccccc2SCc2c1ccc(F)c2F` [Compound E-1c, (R)-12-((S)-7,8-difluoro-6,11-dihydrodibenzo[b,e]thiepin-11-yl)-9-(dimethylphosphoryl)-7-hydroxy-3,4,12,12a-tetrahydro-1H-[1,4]oxazino[3,4-c]pyrido[2,1-f][1,2,4]triazine-6,8-dione] gave a concentration for a half-maximal effect (EC50) of 0.254 µM. Next, `CCC(CC)O[C@@H]1C=C(C(=O)O)C[C@H](N)[C@H]1NC(C)=O` [Oseltamivir acid, reference compound]: greater than 100 µM; `CCP(=O)(CC)c1cn2c(c(O)c1=O)C(=O)N1CCOC[C@H]1N2[C@@H]1c2ccccc2SCc2c1ccc(F)c2F` [Compound F-1, (R)-9-(Diethylphosphoryl)-12-((S)-7,8-Difluoro-6,11-Dihydrodibenzo[b,e]-Thiepin-11-yl)-7-Hydroxy-3,4,12,12a-Tetrahydro-1H-[1,4]Oxazino[3,4-c]Pyrido[2,1-f][1,2,4]Triazine-6,8-Dione]: 0.881 µM.
